Laboratory results from ChEMBL document CHEMBL1142502, “An endoplasmic reticulum (ER) stress-suppressive compound and its analogues from the mushroom Hericium erinaceum” (Bioorg Med Chem, 2008).
The source made the active and inactive calls. The calls are words filed in the database; no cut-off is given here.

Legend:
Format in all cases: functional, cell-based
[1] = tested on: N2a; assay: Protection against tunicamycin-induced endoplasmic reticulum stress-dependent mouse Neuro2a cells death upto 10 ug/ml after 24 hrs by MTT assay
[2] = tested on: N2a; assay: Protection against thapsigargin-induced endoplasmic reticulum stress-dependent mouse Neuro2a cells death upto 10 ug/ml after 24 hrs by MTT assay
[3] = tested on: N2a; assay: Protection against tunicamycin-induced endoplasmic reticulum stress-dependent mouse Neuro2a cells death after 24 hrs by MTT assay
[4] = tested on: N2a; assay: Protection against thapsigargin-induced endoplasmic reticulum stress-dependent mouse Neuro2a cells death after 24 hrs by MTT assay

| Structure (SMILES) | Activity [1] | Activity [2] | Activity [3] | Activity [4] |
| --- | --- | --- | --- | --- |
| COc1cc2c(c(O)c1C/C=C(\C)CCC=C(C)C)C(=O)OC2 | inactive | inactive | – | – |
| COc1cc2c(c3c1CCC(C)(CC(=O)C=C(C)C)O3)COC2=O (racemic) | inactive | inactive | – | – |
| CCCCCCCCCCCCCCCC(=O)OCc1cc(OC)c2c(c1C=O)O[C@@](C)(CC(=O)C=C(C)C)[C@@H](O)C2 (relative stereo) | – | – | Dose-dependent effect | Dose-dependent effect |
